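Step 1: Grow cells in 96-well plates. Step 2: Expose to compound for 48 hours at 5 concentrations. Step 3: Interpolate endpoints linearly; if unreached, use highest concentration. At the TGI there is no net growth.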
Tests used:
Test in all cases: NCI-60 cell line screen, 48 h
UO-31 renal = test system: UO-31 renal
KM12 colon = test system: KM12 colon
SW-620 colon = test system: SW-620 colon
NCI/ADR-RES ovarian = test system: NCI/ADR-RES ovarian
IGROV1 ovarian = test system: IGROV1 ovarian
ACHN renal = test system: ACHN renal
MDA-MB-231 breast = test system: MDA-MB-231 breast
SF-539 CNS = test system: SF-539 CNS
HOP-62 NSCLC = test system: HOP-62 NSCLC
COLO 205 colon = test system: COLO 205 colon
HL-60(TB) leukemia = test system: HL-60(TB) leukemia
OVCAR-5 ovarian = test system: OVCAR-5 ovarian
HS 578T breast = test system: HS 578T breast
SK-MEL-5 melanoma = test system: SK-MEL-5 melanoma
LOX IMVI melanoma = test system: LOX IMVI melanoma
U251 CNS = test system: U251 CNS
HT29 colon = test system: HT29 colon
SR leukemia = test system: SR leukemia
SK-MEL-2 melanoma = test system: SK-MEL-2 melanoma
SN12C renal = test system: SN12C renal
T-47D breast = test system: T-47D breast
NCI-H460 lung = test system: NCI-H460 lung
NCI-H23 lung = test system: NCI-H23 lung
A498 renal = test system: A498 renal
SF-268 CNS = test system: SF-268 CNS
K-562 leukemia = test system: K-562 leukemia
SF-295 CNS = test system: SF-295 CNS
MOLT-4 leukemia = test system: MOLT-4 leukemia
MDA-N = test system: MDA-N
UACC-257 melanoma = test system: UACC-257 melanoma
MCF7 breast = test system: MCF7 breast
NCI-H522 lung = test system: NCI-H522 lung
DU-145 prostate = test system: DU-145 prostate
CAKI-1 renal = test system: CAKI-1 renal
MDA-MB-435 = test system: MDA-MB-435
786-0 renal = test system: 786-0 renal
M14 melanoma = test system: M14 melanoma
HCT-116 colon = test system: HCT-116 colon
RPMI-8226 leukemia = test system: RPMI-8226 leukemia
UACC-62 melanoma = test system: UACC-62 melanoma
OVCAR-8 ovarian = test system: OVCAR-8 ovarian
RXF 393 renal = test system: RXF 393 renal
A549 NSCLC = test system: A549 NSCLC
OVCAR-3 ovarian = test system: OVCAR-3 ovarian
PC-3 prostate = test system: PC-3 prostate
CCRF-CEM leukemia = test system: CCRF-CEM leukemia
NCI-H226 lung = test system: NCI-H226 lung
TK-10 renal = test system: TK-10 renal
SNB-19 CNS = test system: SNB-19 CNS
HCT-15 colon = test system: HCT-15 colon
SK-OV-3 ovarian = test system: SK-OV-3 ovarian
MALME-3M melanoma = test system: MALME-3M melanoma
SNB-75 CNS = test system: SNB-75 CNS
EKVX NSCLC = test system: EKVX NSCLC
HCC-2998 colon = test system: HCC-2998 colon
SK-MEL-28 melanoma = test system: SK-MEL-28 melanoma
HOP-92 NSCLC = test system: HOP-92 NSCLC
OVCAR-4 ovarian = test system: OVCAR-4 ovarian

COc1ccc(C2C=C(c3ccccc3)Nc3nnnn32)cc1 (centres undefined)
TGI (UO-31 renal): > 100 µM
TGI (KM12 colon): 34.8 µM
TGI (SW-620 colon): > 100 µM
TGI (NCI/ADR-RES ovarian): > 100 µM
TGI (IGROV1 ovarian): > 100 µM
TGI (ACHN renal): 60.3 µM
TGI (MDA-MB-231 breast): 90.5 µM
TGI (SF-539 CNS): 53.1 µM
TGI (HOP-62 NSCLC): 66.8 µM
TGI (COLO 205 colon): > 100 µM
TGI (HL-60(TB) leukemia): > 100 µM
TGI (OVCAR-5 ovarian): > 100 µM
TGI (HS 578T breast): > 100 µM
TGI (SK-MEL-5 melanoma): > 100 µM
TGI (LOX IMVI melanoma): > 100 µM
TGI (U251 CNS): 56.1 µM
TGI (HT29 colon): 34.2 µM
TGI (SR leukemia): > 100 µM
TGI (SK-MEL-2 melanoma): > 100 µM
TGI (SN12C renal): > 100 µM
TGI (T-47D breast): 60.4 µM
TGI (NCI-H460 lung): > 100 µM
TGI (NCI-H23 lung): > 100 µM
TGI (A498 renal): > 100 µM
TGI (SF-268 CNS): > 100 µM
TGI (K-562 leukemia): > 100 µM
TGI (SF-295 CNS): 88.3 µM
TGI (MOLT-4 leukemia): > 100 µM
TGI (MDA-N): > 100 µM
TGI (UACC-257 melanoma): > 100 µM
TGI (MCF7 breast): 84.4 µM
TGI (NCI-H522 lung): 57.7 µM
TGI (DU-145 prostate): > 100 µM
TGI (CAKI-1 renal): > 100 µM
TGI (MDA-MB-435): > 100 µM
TGI (786-0 renal): 91.1 µM
TGI (M14 melanoma): > 100 µM
TGI (HCT-116 colon): 29.3 µM
TGI (RPMI-8226 leukemia): 80.2 µM
TGI (UACC-62 melanoma): > 100 µM
TGI (OVCAR-8 ovarian): > 100 µM
TGI (RXF 393 renal): 50.9 µM
TGI (A549 NSCLC): > 100 µM
TGI (OVCAR-3 ovarian): 77.8 µM
TGI (PC-3 prostate): > 100 µM
TGI (CCRF-CEM leukemia): > 100 µM
TGI (NCI-H226 lung): > 100 µM
TGI (TK-10 renal): 29.8 µM
TGI (SNB-19 CNS): > 100 µM
TGI (HCT-15 colon): > 100 µM
TGI (SK-OV-3 ovarian): 93 µM

Cc1cc(C)c(OC(=O)Nc2cccc3ccccc23)c(-c2ccccc2)c1
TGI (UO-31 renal): 26.8 µM
TGI (KM12 colon): > 100 µM
TGI (SW-620 colon): > 100 µM
TGI (NCI/ADR-RES ovarian): > 100 µM
TGI (IGROV1 ovarian): > 100 µM
TGI (ACHN renal): 94.9 µM
TGI (MDA-MB-231 breast): > 100 µM
TGI (SF-539 CNS): > 100 µM
TGI (HOP-62 NSCLC): > 100 µM
TGI (COLO 205 colon): > 100 µM
TGI (HL-60(TB) leukemia): > 100 µM
TGI (OVCAR-5 ovarian): > 100 µM
TGI (HS 578T breast): > 100 µM
TGI (MALME-3M melanoma): > 100 µM
TGI (SK-MEL-5 melanoma): 34.6 µM
TGI (LOX IMVI melanoma): > 100 µM
TGI (U251 CNS): > 100 µM
TGI (HT29 colon): > 100 µM
TGI (SR leukemia): > 100 µM
TGI (SN12C renal): > 100 µM
TGI (T-47D breast): > 100 µM
TGI (NCI-H460 lung): > 100 µM
TGI (NCI-H23 lung): > 100 µM
TGI (SF-268 CNS): 80.1 µM
TGI (K-562 leukemia): > 100 µM
TGI (SF-295 CNS): > 100 µM
TGI (SNB-75 CNS): 47.4 µM
TGI (MOLT-4 leukemia): 37.3 µM
TGI (MDA-N): > 100 µM
TGI (MCF7 breast): > 100 µM
TGI (EKVX NSCLC): > 100 µM
TGI (DU-145 prostate): > 100 µM
TGI (CAKI-1 renal): 93 µM
TGI (MDA-MB-435): 82.2 µM
TGI (786-0 renal): > 100 µM
TGI (M14 melanoma): > 100 µM
TGI (HCT-116 colon): > 100 µM
TGI (RPMI-8226 leukemia): > 100 µM
TGI (UACC-62 melanoma): > 100 µM
TGI (OVCAR-8 ovarian): > 100 µM
TGI (HCC-2998 colon): 91.8 µM
TGI (A549 NSCLC): > 100 µM
TGI (OVCAR-3 ovarian): > 100 µM
TGI (PC-3 prostate): > 100 µM
TGI (CCRF-CEM leukemia): > 100 µM
TGI (NCI-H226 lung): 58.4 µM
TGI (TK-10 renal): > 100 µM
TGI (SK-MEL-28 melanoma): > 100 µM
TGI (HOP-92 NSCLC): 78.6 µM
TGI (HCT-15 colon): > 100 µM
TGI (OVCAR-4 ovarian): > 100 µM
TGI (SK-OV-3 ovarian): > 100 µM

CC1=NN(c2nc(N)nc(/C(C#N)=C\C3COc4ccccc4C3=O)n2)C(C)(C)C1 (centres undefined)
TGI (UO-31 renal): 96.8 µM
TGI (KM12 colon): > 100 µM
TGI (SW-620 colon): > 100 µM
TGI (NCI/ADR-RES ovarian): 35.9 µM
TGI (IGROV1 ovarian): > 100 µM
TGI (ACHN renal): 93.7 µM
TGI (MDA-MB-231 breast): > 100 µM
TGI (SF-539 CNS): > 100 µM
TGI (HOP-62 NSCLC): > 100 µM
TGI (HL-60(TB) leukemia): 5.2 µM
TGI (OVCAR-5 ovarian): > 100 µM
TGI (HS 578T breast): 85 µM
TGI (SK-MEL-5 melanoma): > 100 µM
TGI (LOX IMVI melanoma): > 100 µM
TGI (U251 CNS): > 100 µM
TGI (HT29 colon): 69 µM
TGI (SR leukemia): 46.1 µM
TGI (SK-MEL-2 melanoma): 42.3 µM
TGI (T-47D breast): 69.1 µM
TGI (NCI-H460 lung): > 100 µM
TGI (NCI-H23 lung): 90.5 µM
TGI (A498 renal): 63 µM
TGI (SF-268 CNS): > 100 µM
TGI (K-562 leukemia): > 100 µM
TGI (SF-295 CNS): > 100 µM
TGI (MOLT-4 leukemia): 64 µM
TGI (MDA-N): 84.6 µM
TGI (UACC-257 melanoma): > 100 µM
TGI (MCF7 breast): > 100 µM
TGI (NCI-H522 lung): > 100 µM
TGI (EKVX NSCLC): > 100 µM
TGI (DU-145 prostate): > 100 µM
TGI (CAKI-1 renal): > 100 µM
TGI (MDA-MB-435): > 100 µM
TGI (786-0 renal): > 100 µM
TGI (M14 melanoma): > 100 µM
TGI (HCT-116 colon): 75 µM
TGI (RPMI-8226 leukemia): 54.8 µM
TGI (OVCAR-8 ovarian): > 100 µM
TGI (HCC-2998 colon): > 100 µM
TGI (RXF 393 renal): 64.4 µM
TGI (OVCAR-3 ovarian): > 100 µM
TGI (PC-3 prostate): 77.7 µM
TGI (CCRF-CEM leukemia): > 100 µM
TGI (NCI-H226 lung): > 100 µM
TGI (TK-10 renal): > 100 µM
TGI (SK-MEL-28 melanoma): > 100 µM
TGI (HOP-92 NSCLC): > 100 µM
TGI (HCT-15 colon): > 100 µM
TGI (OVCAR-4 ovarian): > 100 µM
TGI (SK-OV-3 ovarian): 84.7 µM

From PubChem BioAssay (NCI)
